Measurements as given in US11964949B2, “Substituted phenyloxazolidinones for antimicrobial therapy” (priority 2015, dated 2024).
Values after ≈ are worked out from the molar mass of the structure shown. Read-outs that look alike come from different tables or passages of the source.

Experiments:
[1] = system: Mycobacterium tuberculosis H37Rv; test: In vitro assay for antimicrobial susceptibility (microplate Alamar blue, MIC); type: cell-based; settings: Mycobacterium tuberculosis, read-out: MIC (μg/mL) against H37Rv
[2] = system: mitochondrial protein synthesis (MPS) in H9C2 cells; test: In vitro assay for MPS inhibition (COX-1 / SDH-A ELISA in H9C2 cells); type: cell-based, rat; settings: Rattus norvegicus, read-out: IC50 (μM) MPS inhibition
[3] = M. tuberculosis H37Rv, 7H9 broth, Alamar blue
[4] = 120 h, H9C2 cells, 5 days incubation

Compound | MIC ([1]; H37RV) [µg/mL] | IC50 ([2]; H9c2, 120 h) [µM] | MIC [1, 3] [µg/mL] | IC50 [2, 4] [µM]
O=C(NC[C@H]1CN(c2cc(F)c(N3[C@@H]4CC[C@H]3CSC4)c(F)c2)C(=O)O1)C1CCC1 [OTB-509, N—(((S)-3-(4-((1R,5S)-3-Thia-8-aza-bicyclo[3.2.1]octan-8-yl)-3,5-difluorophenyl)-2-oxo-oxazolidin-5-yl)methyl)cyclobutanecarboxamide] | 0.04 (≈ 0.0914 µM) | 5 | – | –
O=C(NC[C@H]1CN(c2cc(F)c(N3[C@@H]4CC[C@H]3CSC4)c(F)c2)C(=O)O1)C1CC1 [OTB-508, N—(((S)-3-(4-((1R,5S)-3-Thia-8-aza-bicyclo[3.2.1]octan-8-yl)-3,5-difluorophenyl)-2-oxo-oxazolidin-5-yl)methyl)cyclopropanecarboxamide] | 0.2 (≈ 0.472 µM) | 8 | – | –
O=C(NC[C@H]1CN(c2cc(F)c(N3[C@@H]4CC[C@H]3C[S+]([O-])C4)c(F)c2)C(=O)O1)C1CCC1 (stereo partly drawn) [OTB-513, N-(((5S)-3-(3,5-Difluoro-4-((1R,5S)-3-oxido-3-thia-8-azabicyclo[3.2.1]octan-8-yl)phenyl)-2-oxo-oxazolidin-5-yl)methyl)cyclobutanecarboxamide] | 1.66 (≈ 3.67 µM) | 13 | – | –
CS(=O)(=O)NC[C@H]1CN(c2ccc(N3CC4(CSC4)C3)c(F)c2)C(=O)O1 [OTB-260-2A] | – | – | 0.82 (≈ 2.04 µM) | > 100
CC(=O)NC[C@H]1CN(c2cc(F)c(N3CCCSCC3)c(F)c2)C(=O)O1 [OTB-407, (S)—N-((3-(3,5-Difluoro-4-(1,4-thiazepan-4-yl)phenyl)-2-oxo-oxazolidin-5-yl)methyl)acetamide] | – | – | 0.097 (≈ 0.252 µM) | 3.08
CCCCS(=O)(=O)NC[C@H]1CN(c2ccc(N3CCCSCC3)c(F)c2)C(=O)O1 [OTB-116, (R)—N-[[3-(3-Fluoro-4-(1,4-thiazepan-4-yl)phenyl)-2-oxo-oxazolidin-5-yl]methyl]butane-1-sulfonamide] | – | – | 3.81 (≈ 8.56 µM) | > 100
O=C1O[C@@H](Cn2nccn2)CN1c1ccc(N2CCCSCCC2)c(F)c1 [OTB-113, (R)-5-[(2H-1,2,3-triazol-2-yl)methyl]-3-[3-fluoro-4-(1,5-thiazocan-5-yl)phenyl]oxazolidin-2-one] | – | – | 2 (≈ 5.11 µM) | > 100
CC(=O)NC[C@H]1CN(c2cc(F)c(N3[C@@H]4CC[C@H]3C[S+]([O-])C4)c(F)c2)C(=O)O1 (stereo partly drawn) [OTB-514, N-(((5S)-3-(3,5-Difluoro-4-((1R,5S)-3-oxido-3-thia-8-azabicyclo[3.2.1]octan-8-yl)phenyl)-2-oxo-oxazolidin-5-yl)methyl) acetamide] | 0.5 (≈ 1.21 µM) | 25 | – | –
CC(=O)NC[C@H]1CN(c2cc(F)c(N3CC4CCC(C3)O4)c(F)c2)C(=O)O1 [OBD-048] | – | – | 0.39 (≈ 1.02 µM) | 5
O=C(NC[C@H]1CN(c2ccc(N3CCCSCC3)c(F)c2)C(=O)O1)c1cccs1 [OTB-112, (S)—N-[(3-[3-Fluoro-4-(1,4-thiazepan-4-yl)phenyl]-2-oxo-oxazolidin-5-yl)methyl]thiophene-2-carboxamide] | – | – | 0.5 (≈ 1.15 µM) | > 100
O=C(NC[C@H]1CN(c2cc(F)c(N3CC4(C3)C[S+]([O-])C4)c(F)c2)C(=O)O1)C1CCC1 [OTB-251] | – | – | 0.9 (≈ 2.05 µM) | 24
O=C1O[C@@H](Cn2ccnn2)CN1c1cc(F)c(N2CC3(CSC3)C2)c(F)c1 [OTB-245, (R)-5-((1H-1,2,3-Triazol-1-yl)methyl)-3-(3,5-difluoro-4-(2-thia-6-azaspiro[3.3]heptan-6-yl)phenyl)oxazolidin-2-one] | – | – | 0.03 to 0.5 (≈ 0.0763 to 1.27 µM) | 25 to 35
COC(=O)NC[C@H]1CN(c2cc(F)c(N3CC4(C3)C[S+]([O-])C4)c(F)c2)C(=O)O1 [OTB-253] | – | – | 0.7 (≈ 1.69 µM) | 10
CS(=O)(=O)NC[C@H]1CN(c2ccc(N3CC4(C3)C[S+]([O-])C4)c(F)c2)C(=O)O1 [OTB-260-2B] | – | – | 0.49 (≈ 1.17 µM) | > 100
COC(=O)NC[C@H]1CN(c2ccc(N3C4CCC3C[S+]([O-])C4)c(F)c2)C(=O)O1 (some centres unmarked) [OTB-518] | 3.5 (≈ 8.51 µM) | 73 | – | –
CCCC(=O)NC[C@H]1CN(c2ccc(N3CCCSCC3)c(F)c2)C(=O)O1 [OBD-005, (S)—N-((3-(3-fluoro-4-(1,4-thiazepan-4-yl)phenyl)-2-oxooxazolidin-5-yl)methyl)buty ramide] | – | – | 0.055 (≈ 0.139 µM) | 15.6
CC(=O)NC[C@H]1CN(c2ccc(N3CC4CCC(C3)O4)c(F)c2)C(=O)O1 [OBD-110] | – | – | 0.45 (≈ 1.24 µM) | 7
O=C1O[C@@H](Cn2cncn2)CN1c1ccc(N2CCCSCC2)c(F)c1 [OTB-119, (R)-5-[(1H-1,2,4-Triazol-1-yl)methyl]-3-[3-fluoro-4-(1,4-thiazepan-4-yl)phenyl]oxazolidin-2-one] | – | – | 0.456 (≈ 1.21 µM) | > 100
O=C(NC[C@H]1CN(c2ccc(N3[C@@H]4CC[C@H]3CSC4)c(F)c2)C(=O)O1)C1CCC1 [OTB-507, N—(((S)-3-(4-((1R,5S)-3-Thia-8-aza-bicyclo[3.2.1]octan-8-yl)-3-fluorophenyl)-2-oxo-oxazolidin-5-yl)methyl)cyclobutanecarboxamide] | 0.7 (≈ 1.67 µM) | 10 | – | –
COC(=O)NC[C@H]1CN(c2cc(F)c(N3C4CCC3COC4)c(F)c2)C(=O)O1 [OBD-052] | 0.95 (≈ 2.39 µM) | 13 | – | –

Compound | MIC ([1]; H37RV) [µg/mL] | IC50 ([2]; H9c2, 120 h) [µM] | MIC [1, 3] [µg/mL] | IC50 [2, 4] [µM]
O=C(NC[C@H]1CN(c2ccc(N3CCCSCC3)c(F)c2)C(=O)O1)C1CC1 [OTB-413, (S)—N-((3-(3-Fluoro-4-(1,4-thiazepan-4-yl)phenyl)-2-oxo-oxazolidin-5-yl)methyl)cyclopropanecarboxamide] | – | – | 0.108 (≈ 0.274 µM) | 9.13
CC(=O)NC[C@H]1CN(c2cc(F)c(N3CC4(C3)C[S+]([O-])C4)c(F)c2)C(=O)O1 [OTB-520] | – | – | 0.4 (≈ 1 µM) | 17
O=C(NC[C@H]1CN(c2ccc(N3[C@@H]4CC[C@H]3CSC4)c(F)c2)C(=O)O1)C1CC1 [OTB-506, N—(((S)-3-(4-((1R,5S)-3-Thia-8-azabicyclo[3.2.1]octan-8-yl)-3-fluorophenyl)-2-oxo-oxazolidin-5-yl)methyl)cyclopropanecarboxamide] | 1 (≈ 2.47 µM) | 8 | – | –
O=C(NC[C@H]1CN(c2ccc(N3CC4(C3)C[S+]([O-])C4)c(F)c2)C(=O)O1)C1CC1 [OTB-255] | – | – | 1.9 (≈ 4.66 µM) | 10
COC(=O)NC[C@H]1CN(c2ccc(N3CC4(C3)C[S+]([O-])C4)c(F)c2)C(=O)O1 [OTB-256] | – | – | 4 (≈ 10.1 µM) | 46
O=C1O[C@@H](CO)CN1c1cc(F)c(N2CC3(COC3)C2)c(F)c1 [OTB-229, (R)-3-(3,5-Difluoro-4-(2-oxa-6-azaspiro[3.3]heptan-6-yl)phenyl)-5-(hydroxymethyl)oxazolidin-2-one] | – | – | 1.9 to 7.4 (≈ 5.82 to 22.7 µM) | > 100
O=C1O[C@@H](Cn2nccn2)CN1c1ccc(N2CC3(CSC3)C2)c(F)c1 [OTB-260-5A] | – | – | 0.44 (≈ 1.17 µM) | > 100
CNC(=O)OC[C@H]1CN(c2ccc(N3CC4(CSC4)C3)c(F)c2)C(=O)O1 [OTB-260-4A] | 0.39 (≈ 1.02 µM) | – | – | > 100
CC(=O)NC[C@H]1CN(c2cc(F)c(N3CC4(COC4)C3)c(F)c2)C(=O)O1 [OTB-230, (S)—N-((3-(3,5-Difluoro-4-(2-oxa-6-azaspiro[3.3]heptan-6-yl)phenyl)-2-oxo-oxazolidin-5-yl)methyl)acetamide] | – | – | 0.2 (≈ 0.544 µM) | 13
O=C(NC[C@H]1CN(c2ccc(N3CCCSCC3)c(F)c2)C(=O)O1)c1ccco1 [OTB-111, (S)—N-[(3-[3-Fluoro-4-(1,4-thiazepan-4-yl)phenyl]-2-oxo-oxazolidin-5-yl)methyl]furan-2-carboxamide] | – | – | 0.125 (≈ 0.298 µM) | 60.3
O=C(NC[C@H]1CN(c2ccc(N3CCC[S+]([O-])CC3)c(F)c2)C(=O)O1)c1ccco1 (stereo partly drawn) [OTB-127, N-[[(5S)-3-(3-Fluoro-4-(1-oxido-1,4-thiazepan-4-yl)phenyl)-2-oxo-oxazolidin-5-yl]methyl]furan-2-carboxamide] | – | – | 1.23 (≈ 2.83 µM) | 10.2
COC(=O)NC[C@H]1CN(c2ccc(N3CCCSCC3)c(F)c2)C(=O)O1 [OTB-412, Methyl (S)-((3-(3-fluoro-4-(1,4-thiazepan-4-yl)phenyl)-2-oxo-oxazolidin-5-yl)methyl) carbamate] | – | – | 0.199 (≈ 0.519 µM) | 10
O=C1O[C@@H](Cn2ccnn2)CN1c1cc(F)c(N2C3CCC2C[S+]([O-])C3)c(F)c1 (some centres unmarked) [OTB-517] | 1.3 to 2 (≈ 3.07 to 4.72 µM) | 30 to 55 | – | –
COC(=O)NC[C@H]1CN(c2ccc(N3CC4CCC(C3)O4)c(F)c2)C(=O)O1 [OBD-111] | – | – | 0.49 (≈ 1.29 µM) | 7
COC(=O)NC[C@H]1CN(c2cc(F)c(N3CC4(COC4)C3)c(F)c2)C(=O)O1 [OTB-231, Methyl (S)-((3-(3,5-difluoro-4-(2-oxa-6-azaspiro[3.3]heptan-6-yl)phenyl)-2-oxo-oxazolidin-5-yl)methyl)carbamate] | – | – | 0.24 to 0.7 (≈ 0.626 to 1.83 µM) | 37 to 63
O=C(NC[C@H]1CN(c2cc(F)c(N3CC4CCC(C3)O4)c(F)c2)C(=O)O1)C1CCC1 [OBD-253] | – | – | 0.53 (≈ 1.26 µM) | 65
CNC(=O)OC[C@H]1CN(c2cc(F)c(N3CC4(CSC4)C3)c(F)c2)C(=O)O1 [OTB-516-4A] | 0.03 (≈ 0.0751 µM) | – | – | > 100
CCCC(=O)NC[C@H]1CN(c2ccc(N3CCC[S+]([O-])CC3)c(F)c2)C(=O)O1 (stereo partly drawn) [OBD-006, N-(((5S)-3-(3-Fluoro-4-(1-oxido-1,4-thiazepan-4-yl)phenyl)-2-oxooxazolidin-5-yl)methyl)butyramide] | – | – | 0.49 (≈ 1.19 µM) | 7.49
CCCC(=O)NC[C@H]1CN(c2ccc(N3[C@@H]4CC[C@H]3C[S+]([O-])C4)c(F)c2)C(=O)O1 (stereo partly drawn) [OBD-017, N-(((5S)-3-(3-Fluoro-4-((1R,5S)-3-oxido-3-thia-8-azabicyclo[3.2.1]octan-8-yl)phenyl)-2-oxooxazolidin-5-yl)methyl)butyramide] | 5.8 to 6.3 (≈ 13.7 to 14.9 µM) | 41 | – | –
O=C1O[C@@H](Cn2ccnn2)CN1c1ccc(N2CC3(CSC3)C2)c(F)c1 [OTB-241, (R)-5-((1H-1,2,3-Triazol-1-yl)methyl)-3-(3-fluoro-4-(2-thia-6-azaspiro[3.3]heptan-6-yl)phenyl)oxazolidin-2-one] | – | – | 0.116 (≈ 0.309 µM) | 19.8
